The target of this assay is T1, PD-1/PD-L1 (Homo sapiens, UniProt Q9NZQ7).
T1 construct: TVMV protease site (C); made in house; host or cells: HEK293T cells
Description: PD-1/PD-L1 Homogenous Time-Resolved Fluorescence (HTRF) binding assay. Particulars: PD-L1-His 10 nM, PD-1-Ig 20 nM; read-out: HTRF IC50. From the text:
The ability of the compounds of formula (I) to bind to PD-L1 was investigated using a PD-1/PD-L1 Homogenous Time-Resolved Fluorescence (HTRF) binding assay.
The interaction of PD-1 and PD-L1 can be assessed using soluble, purified preparations of the extracellular domains of the two proteins. The PD-1 and PD-L1 protein extracellular domains were expressed as fusion proteins with detection tags, for PD-1, the tag was the Fc portion of Immunoglobulin (PD-1-Ig) and for PD-L1 it was the 6 histidine motif (PD-L1-His). All binding studies were performed in an HTRF assay buffer consisting of dPBS supplemented with 0.1% […] bovine serum albumin and 0.05% (v/v) Tween-20. For the h/PD-L1-His binding assay, inhibitors were pre-incubated with PD-L1-His (10 nM final) for 15 m in 4 μl of assay buffer, followed by addition of PD-1-Ig (20 nM final) in 1 μl of assay buffer and further incubation for 15 m. HTRF detection was achieved using europium crypate-labeled anti-Ig (1 nM final) and allophycocyanin (APC) labeled anti-His (20 nM final). Antibodies were diluted in HTRF detection buffer and 5 μl was dispensed on top of the binding reaction. The reaction mixture was allowed to equilibrate for 30 minutes and the resulting signal (665 nm/620 nm ratio) was obtained using an EnVision fluorometer. Additional binding assays were established between the human proteins PD-1-Ig/PD-L2-His (20 & 5 nM, respectively) and CD80-His/PD-L1-Ig (100 & 10 nM, respectively).
Recombinant Proteins: Human PD-1 (25-167) with a C-terminal human Fc domain of immunoglobulin G (Ig) epitope tag [hPD-1 (25-167)-3S-IG] and human PD-L1 (18-239) with a C-terminal His epitope tag [hPD-L1(18-239)-TVMV-His] were expressed in HEK293T cells and purified sequentially by ProteinA affinity chromatography and size exclusion chromatography. Human PD-L2-His and CD80-His was obtained through commercial sources.
Table 1 lists the IC50 values for representative examples of this disclosure measured in the PD-1/PD-L1 Homogenous Time-Resolved Fluorescence (HTRF) binding assay.
On the technique in general: Time-resolved FRET reads energy transfer from a long-lived donor to a nearby acceptor.

Positions of bridges follow the written chain, without caps; N, C: chain ends. Non-standard residues stand in square brackets, D forms with d. Residues, ends and D or L forms follow the SMILES beside them. *: point of attachment. Chenodeoxycholyl = C[C@H](CCC(=O)*)[C@H]1CC[C@H]2[C@@H]3[C@H](O)C[C@@H]4C[C@H](O)CC[C@]4(C)[C@H]3CC[C@]12C; Ursodeoxycholyl = C[C@H](CCC(=O)*)[C@H]1CC[C@H]2[C@@H]3[C@@H](O)C[C@@H]4C[C@H](O)CC[C@]4(C)[C@H]3CC[C@]12C; Cholyl = C[C@H](CCC(=O)*)[C@H]1CC[C@H]2[C@@H]3[C@H](O)C[C@@H]4C[C@H](O)CC[C@]4(C)[C@H]3C[C@H](O)[C@]12C; Deoxycholoyl = C[C@H](CCC(=O)*)[C@H]1CC[C@H]2[C@@H]3CC[C@@H]4C[C@H](O)CC[C@]4(C)[C@H]3C[C@H](O)[C@]12C; Lithocholoyl = C[C@H](CCC(=O)*)[C@H]1CC[C@H]2[C@@H]3CC[C@@H]4C[C@H](O)CC[C@]4(C)[C@H]3CC[C@]12C; X36 = C[C@H](CCC(=O)*)[C@H]1CC[C@H]2[C@@H]3CC[C@@H]4C[C@H](O)CC[C@]4(C)[C@H]3CC(O)[C@]12C; Trp(1-CH2CO2Me) = COC(=O)Cn1cc(C[C@H](N)C(=O)O)c2ccccc21; Trp(1-CH2COOH) = N[C@@H](Cc1cn(CC(=O)O)c2ccccc12)C(=O)O; Hyp = O=C(O)[C@@H]1C[C@@H](O)CN1; NMeNle = CCCC[C@H](NC)C(=O)O; NMeA = CN[C@@H](C)C(=O)O; Dab = NCC[C@H](N)C(=O)O; Dap = NC[C@H](N)C(=O)O

T1 sequence (Q9NZQ7 18-239): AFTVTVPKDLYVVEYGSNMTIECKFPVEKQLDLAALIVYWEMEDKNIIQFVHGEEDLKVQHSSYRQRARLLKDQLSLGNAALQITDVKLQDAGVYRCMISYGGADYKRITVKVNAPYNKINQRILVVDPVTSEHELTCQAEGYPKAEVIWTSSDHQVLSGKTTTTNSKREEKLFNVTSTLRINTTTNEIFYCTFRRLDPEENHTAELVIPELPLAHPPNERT

As for `CCCC[C@H]1C(=O)N(C)[C@@H](CCCC)C(=O)N[C@@H](CC(C)C)C(=O)N[C@H](C(=O)NCC(N)=O)CSCC(=O)N[C@@H](Cc2ccc(O)cc2)C(=O)N(C)[C@@H](C)C(=O)N[C@@H](CC(N)=O)C(=O)N2CCC[C@H]2C(=O)N[C@@H](CNC(=O)CC[C@@H](C)[C@H]2CC[C@H]3[C@@H]4CC[C@@H]5C[C@H](O)CC[C@]5(C)[C@H]4C[C@H](O)[C@]23C)C(=O)N[C@@H](CC(C)C)C(=O)N2C[C@H](O)C[C@H]2C(=O)N[C@@H](Cc2c[nH]c3ccccc23)C(=O)N[C@@H](CCNC(=O)CC[C@@H](C)[C@H]2CC[C@H]3[C@@H]4[C@H](O)C[C@@H]5C[C@H](O)CC[C@]5(C)[C@H]4CC[C@]23C)C(=O)N[C@@H](Cc2cn(CC(=O)OC)c3ccccc23)C(=O)N1C` [Example 1001] ({CH2CO}-Y[NMeA]NP[Dap](Deoxycholoyl)L[Hyp]W[Dab](Chenodeoxycholyl)[Trp(1-CH2CO2Me)][NMeNle][NMeNle]LCG-NH2; thioether N-14), the IC50 worked out at 9.5 nM. For the compound `CCCC[C@H]1C(=O)N(C)[C@@H](CCCC)C(=O)N[C@@H](CC(C)C)C(=O)N[C@H](C(=O)NCC(N)=O)CSCC(=O)N[C@@H](Cc2ccc(O)cc2)C(=O)N(C)[C@@H](C)C(=O)N[C@@H](CC(N)=O)C(=O)N2CCC[C@H]2C(=O)N[C@@H](CNC(=O)CC[C@@H](C)[C@H]2CC[C@H]3[C@@H]4CC[C@@H]5C[C@H](O)CC[C@]5(C)[C@H]4C[C@H](O)[C@]23C)C(=O)N[C@@H](CC(C)C)C(=O)N2C[C@H](O)C[C@H]2C(=O)N[C@@H](Cc2c[nH]c3ccccc23)C(=O)N[C@@H](CCNC(=O)CC[C@@H](C)[C@H]2CC[C@H]3[C@@H]4[C@H](O)C[C@@H]5C[C@H](O)CC[C@]5(C)[C@H]4CC[C@]23C)C(=O)N[C@@H](Cc2cn(CC(=O)O)c3ccccc23)C(=O)N1C` [Example 1002] ({CH2CO}-Y[NMeA]NP[Dap](Deoxycholoyl)L[Hyp]W[Dab](Chenodeoxycholyl)[Trp(1-CH2COOH)][NMeNle][NMeNle]LCG-NH2; thioether N-14), the IC50 was 11 nM.

For the compound `CCCC[C@H]1C(=O)N(C)[C@@H](CCCC)C(=O)N[C@@H](CC(C)C)C(=O)N[C@H](C(=O)NCC(N)=O)CSCC(=O)N[C@@H](Cc2ccc(O)cc2)C(=O)N(C)[C@@H](C)C(=O)N[C@@H](CC(N)=O)C(=O)N2CCC[C@H]2C(=O)N[C@@H](CNC(=O)CC[C@@H](C)[C@H]2CC[C@H]3[C@@H]4CC[C@@H]5C[C@H](O)CC[C@]5(C)[C@H]4C[C@H](O)[C@]23C)C(=O)N[C@@H](CC(C)C)C(=O)N2C[C@H](O)C[C@H]2C(=O)N[C@@H](Cc2c[nH]c3ccccc23)C(=O)N[C@@H](CCNC(=O)CC[C@@H](C)[C@H]2CC[C@H]3[C@@H]4CC[C@@H]5C[C@H](O)CC[C@]5(C)[C@H]4CC(O)[C@]23C)C(=O)N[C@@H](Cc2cn(CC(=O)OC)c3ccccc23)C(=O)N1C` (stereo partly shown) [Example 1003] ({CH2CO}-Y[NMeA]NP[Dap](Deoxycholoyl)L[Hyp]W[Dab](X36)[Trp(1-CH2CO2Me)][NMeNle][NMeNle]LCG-NH2; thioether N-14), the IC50 was > 10000 nM.

For `CCCC[C@H]1C(=O)N(C)[C@@H](CCCC)C(=O)N[C@@H](CC(C)C)C(=O)N[C@H](C(=O)NCC(N)=O)CSCC(=O)N[C@@H](Cc2ccc(O)cc2)C(=O)N(C)[C@@H](C)C(=O)N[C@@H](CC(N)=O)C(=O)N2CCC[C@H]2C(=O)N[C@@H](CNC(=O)CC[C@@H](C)[C@H]2CC[C@H]3[C@@H]4CC[C@@H]5C[C@H](O)CC[C@]5(C)[C@H]4CC[C@]23C)C(=O)N[C@@H](CC(C)C)C(=O)N2C[C@H](O)C[C@H]2C(=O)N[C@@H](Cc2c[nH]c3ccccc23)C(=O)N[C@@H](CCNC(=O)CC[C@@H](C)[C@H]2CC[C@H]3[C@@H]4CC[C@@H]5C[C@H](O)CC[C@]5(C)[C@H]4CC[C@]23C)C(=O)N[C@@H](Cc2cn(CC(=O)OC)c3ccccc23)C(=O)N1C` [Example 1004] ({CH2CO}-Y[NMeA]NP[Dap](Lithocholoyl)L[Hyp]W[Dab](Lithocholoyl)[Trp(1-CH2CO2Me)][NMeNle][NMeNle]LCG-NH2; thioether N-14), the IC50 was > 10000 nM. Take `CCCC[C@H]1C(=O)N(C)[C@@H](CCCC)C(=O)N[C@@H](CC(C)C)C(=O)N[C@H](C(=O)NCC(N)=O)CSCC(=O)N[C@@H](Cc2ccc(O)cc2)C(=O)N(C)[C@@H](C)C(=O)N[C@@H](CC(N)=O)C(=O)N2CCC[C@H]2C(=O)N[C@@H](CNC(=O)CC[C@@H](C)[C@H]2CC[C@H]3[C@@H]4[C@H](O)C[C@@H]5C[C@H](O)CC[C@]5(C)[C@H]4CC[C@]23C)C(=O)N[C@@H](CC(C)C)C(=O)N2C[C@H](O)C[C@H]2C(=O)N[C@@H](Cc2c[nH]c3ccccc23)C(=O)N[C@@H](CCNC(=O)CC[C@@H](C)[C@H]2CC[C@H]3[C@@H]4[C@H](O)C[C@@H]5C[C@H](O)CC[C@]5(C)[C@H]4CC[C@]23C)C(=O)N[C@@H](Cc2cn(CC(=O)OC)c3ccccc23)C(=O)N1C` [Example 1005] ({CH2CO}-Y[NMeA]NP[Dap](Chenodeoxycholyl)L[Hyp]W[Dab](Chenodeoxycholyl)[Trp(1-CH2CO2Me)][NMeNle][NMeNle]LCG-NH2; thioether N-14): the IC50 is 8400 nM.

On to `CCCC[C@H]1C(=O)N(C)[C@@H](CCCC)C(=O)N[C@@H](CC(C)C)C(=O)N[C@H](C(=O)NCC(N)=O)CSCC(=O)N[C@@H](Cc2ccc(O)cc2)C(=O)N(C)[C@@H](C)C(=O)N[C@@H](CC(N)=O)C(=O)N2CCC[C@H]2C(=O)N[C@@H](CNC(=O)CC[C@@H](C)[C@H]2CC[C@H]3[C@@H]4[C@@H](O)C[C@@H]5C[C@H](O)CC[C@]5(C)[C@H]4CC[C@]23C)C(=O)N[C@@H](CC(C)C)C(=O)N2C[C@H](O)C[C@H]2C(=O)N[C@@H](Cc2c[nH]c3ccccc23)C(=O)N[C@@H](CCNC(=O)CC[C@@H](C)[C@H]2CC[C@H]3[C@@H]4[C@@H](O)C[C@@H]5C[C@H](O)CC[C@]5(C)[C@H]4CC[C@]23C)C(=O)N[C@@H](Cc2cn(CC(=O)OC)c3ccccc23)C(=O)N1C` [Example 1006] ({CH2CO}-Y[NMeA]NP[Dap](Ursodeoxycholyl)L[Hyp]W[Dab](Ursodeoxycholyl)[Trp(1-CH2CO2Me)][NMeNle][NMeNle]LCG-NH2; thioether N-14), for which the IC50 is > 10000 nM.

Take `CCCC[C@H]1C(=O)N(C)[C@@H](CCCC)C(=O)N[C@@H](CC(C)C)C(=O)N[C@H](C(=O)NCC(N)=O)CSCC(=O)N[C@@H](Cc2ccc(O)cc2)C(=O)N(C)[C@@H](C)C(=O)N[C@@H](CC(N)=O)C(=O)N2CCC[C@H]2C(=O)N[C@@H](CNC(=O)CC[C@@H](C)[C@H]2CC[C@H]3[C@@H]4[C@H](O)C[C@@H]5C[C@H](O)CC[C@]5(C)[C@H]4C[C@H](O)[C@]23C)C(=O)N[C@@H](CC(C)C)C(=O)N2C[C@H](O)C[C@H]2C(=O)N[C@@H](Cc2c[nH]c3ccccc23)C(=O)N[C@@H](CCN)C(=O)N[C@@H](Cc2cn(CC(=O)OC)c3ccccc23)C(=O)N1C` [Example 1007] ({CH2CO}-Y[NMeA]NP[Dap](Cholyl)L[Hyp]W[Dab][Trp(1-CH2CO2Me)][NMeNle][NMeNle]LCG-NH2; thioether N-14): the IC50 came out at 6.8 nM.

The term IC50 denotes the concentration that gives 50% inhibition.

The values above are taken from patent publication US20230183292A1, “IMMUNOMODULATORS” (priority 2020, published 2023).
